# Reference: US20040191115A1 (priority 2003, published 2004)
# Where “and” joins values, the source holds several entries; their conditions need not be identical. Equal entries are not always repeated. Where two headings read alike, the source gives them in different places.
# Test system: bacillus atrophaeus spores
# Settings: 2.52 percent H2O2, with cartons; for average count of colony forming units for the time period / log of average count for the time period: mean of samples; for average count of colony forming units for the time period / log of average count for the time period / Log Red. (Avg): normal speed; for Average CFU/mL / Average CFU/mandrel / Log (of Average CFU/mandrel) / Result #1 CFU/mL / Result #2 CFU/mL: normal operating speed
# Protocol: Studies were conducted to determine the microbial eradication on mandrels 34 that were subjected to vaporized sterilant introduced at the heaters 40. […] The efficacy of the mandrel sterilization was studied for both the mandrel caps 35 and the mandrel side tubes 37 (see FIG. 3).
# Each of the studies was further carried out using a testing media of bacillus atrophaeus spores for inoculating the mandrels. The mandrels were inoculated by spraying, using an aerating spray bottle having a solution with a concentration of about 7 log bacillus spores. The mandrels were then allowed to air dry. Controls were swabbed using cotton swabs to assure that the mandrels were properly inoculated. Following the machine operating period of the test, the mandrels were swabbed and the bacillus spores transferred to an agar media for incubation of the spores (at 32° C. for 48 hours) and subsequent recovery.
# The data was collected by taking swab samples at the mandrel cap (C) and on the mandrel side tubes (T). The mandrel side tube data is the sum of all of the side tubes.
# [1] = time 0 min, swab site C (mandrel cap)
# [2] = time 0 min, swab site T (mandrel side tubes)
# [3] = time 10 min, swab site C (mandrel cap)
# [4] = time 10 min, swab site T (mandrel side tubes)
# [5] = time 20 min, swab site C (mandrel cap)
# [6] = time 20 min, swab site T (mandrel side tubes)
# [7] = time 30 min, swab site C (mandrel cap)
# [8] = time 30 min, swab site T (mandrel side tubes)
# [9] = time 40 min, swab site T (mandrel side tubes)
smiles,measurement,setting,value
OO [hydrogen peroxide],average count of colony forming units for the time period,"time 0 min, cap",5.09E+05 CFU/mandrel
same,log of average count for the time period,"time 0 min, cap",5.71 log
same,average count of colony forming units for the time period,"time 0 min, side tubes",7.12E+05 CFU/mandrel
same,log of average count for the time period,"time 0 min, side tubes",5.85 log
same,Average CFU/mL,[1],1.32E+05 CFU/mL and 1.23E+05 CFU/mL
same,Average CFU/mandrel,[1],5.28E+05 CFU/mandrel and 4.90E+05 CFU/mandrel
same,Log (of Average CFU/mandrel),[1],5.72 Log and 5.69 Log
same,Result #1 CFU/mL,[1],1.19E+05 CFU/mL and 1.30E+05 CFU/mL
same,Result #2 CFU/mL,[1],1.45E+05 CFU/mL and 1.15E+05 CFU/mL
same,Average CFU/mL,[2],1.83E+05 CFU/mL and 1.73E+05 CFU/mL
same,Average CFU/mandrel,[2],7.32E+05 CFU/mandrel and 6.92E+05 CFU/mandrel
same,Log (of Average CFU/mandrel),[2],5.86 Log and 5.84 Log
same,Result #1 CFU/mL,[2],1.39E+05 CFU/mL and 1.71E+05 CFU/mL
same,Result #2 CFU/mL,[2],2.27E+05 CFU/mL and 1.75E+05 CFU/mL
same,average count of colony forming units for the time period,"time 10 min, cap",1.57E+05 CFU/mandrel
same,log of average count for the time period,"time 10 min, cap",5.20 log
same,average count of colony forming units for the time period,"time 10 min, side tubes",3.58E+05 CFU/mandrel
same,log of average count for the time period,"time 10 min, side tubes",5.55 log
same,Average CFU/mL,[3],3.35E+04 CFU/mL and 4.50E+04 CFU/mL
same,Average CFU/mandrel,[3],1.34E+05 CFU/mandrel and 1.80E+05 CFU/mandrel
same,Log (of Average CFU/mandrel),[3],5.13 Log and 5.26 Log
same,Result #1 CFU/mL,[3],3.50E+04 CFU/mL and 4.40E+04 CFU/mL
same,Result #2 CFU/mL,[3],3.20E+04 CFU/mL and 4.60E+04 CFU/mL
same,Average CFU/mL,[4],9.25E+04 CFU/mL and 8.65E+04 CFU/mL
same,Average CFU/mandrel,[4],3.70E+05 CFU/mandrel and 3.46E+05 CFU/mandrel
same,Log (of Average CFU/mandrel),[4],5.57 Log and 5.54 Log
same,Result #2 CFU/mL,[4],9.70E+04 CFU/mL and 6.70E+04 CFU/mL
same,Log Red. (Avg),"time 10 min relative to time zero, cap",0.51 Log
same,Log Red. (Avg),"time 10 min relative to time zero, side tubes",0.30 Log
same,average count of colony forming units for the time period,"time 20 min, cap",8.86E+04 CFU/mandrel
same,log of average count for the time period,"time 20 min, cap",4.95 log
same,average count of colony forming units for the time period,"time 20 min, side tubes",4.49E+05 CFU/mandrel
same,log of average count for the time period,"time 20 min, side tubes",5.65 log
same,Log (of Average CFU/mandrel),[5],4.88 Log and 5.01 Log
same,Result #1 CFU/mL,[5],1.93E+04 CFU/mL and 2.82E+04 CFU/mL
same,Result #2 CFU/mL,[5],1.86E+04 CFU/mL and 2.25E+04 CFU/mL
same,Average CFU/mandrel,[6],5.58E+05 CFU/mandrel and 3.40E+05 CFU/mandrel
same,Log (of Average CFU/mandrel),[6],5.75 Log and 5.53 Log
same,Log Red. (Avg),"time 20 min relative to time zero, cap",0.76 Log
same,Log Red. (Avg),"time 20 min relative to time zero, side tubes",0.20 Log
same,average count of colony forming units for the time period,"time 30 min, cap",4.39E+04 CFU/mandrel
same,log of average count for the time period,"time 30 min, cap",4.64 log
same,average count of colony forming units for the time period,"time 30 min, side tubes",2.49E+05 CFU/mandrel
same,log of average count for the time period,"time 30 min, side tubes",5.40 log
same,Average CFU/mandrel,[7],5.06E+04 CFU/mandrel and 3.72E+04 CFU/mandrel
same,Log (of Average CFU/mandrel),[7],4.70 Log and 4.57 Log
same,Result #2 CFU/mL,[7],1.12E+04 CFU/mL and 1.04E+04 CFU/mL
same,Average CFU/mL,[8],6.25E+04 CFU/mL and 6.20E+04 CFU/mL
same,Average CFU/mandrel,[8],2.50E+05 CFU/mandrel and 2.48E+05 CFU/mandrel
same,Log (of Average CFU/mandrel),[8],5.40 Log and 5.39 Log
same,Result #1 CFU/mL,[8],6.30E+04 CFU/mL and 5.10E+04 CFU/mL
same,Result #2 CFU/mL,[8],6.20E+04 CFU/mL and 7.30E+04 CFU/mL
same,Log Red. (Avg),"time 30 min relative to time zero, cap",1.06 Log
same,Log Red. (Avg),"time 30 min relative to time zero, side tubes",0.46 Log
same,average count of colony forming units for the time period,"time 40 min, cap",5.21E+03 CFU/mandrel
same,log of average count for the time period,"time 40 min, cap",3.72 log
same,average count of colony forming units for the time period,"time 40 min, side tubes",1.15E+05 CFU/mandrel
same,log of average count for the time period,"time 40 min, side tubes",5.06 log
same,Average CFU/mL,[9],2.71E+04 CFU/mL and 3.05E+04 CFU/mL
same,Average CFU/mandrel,[9],1.08E+05 CFU/mandrel and 1.22E+05 CFU/mandrel
same,Log (of Average CFU/mandrel),[9],5.04 Log and 5.09 Log
same,Result #1 CFU/mL,[9],2.50E+04 CFU/mL and 2.89E+04 CFU/mL
same,Result #2 CFU/mL,[9],2.92E+04 CFU/mL and 3.21E+04 CFU/mL
same,Log Red. (Avg),"time 40 min relative to time zero, cap",1.99 Log
same,Log Red. (Avg),"time 40 min relative to time zero, side tubes",0.79 Log
